Assay: all-hydrocarbon stapling by ring-closing olefin metathesis between S5/S5 (i,i+4) or R8/S5 (i,i+7) olefinic residues, Grubbs 1st-generation catalyst (10 mM in DCE per text; 6 mM per schemes), 2 x 2 h, on Rink Amide MBHA resin
Conditions: the molecule shown is the open-chain precursor, 35.0 °C, 60 steps
[1] = 33-membered ring, 1,2-dichloroethane, 4.0 h

For `C=CCCCCCC[C@@](C)(NC(=O)[C@@H](NC(=O)[C@H](C)NC(=O)CNC(=O)[C@H](CCCCNC(=O)OC(C)(C)C)NC(=O)[C@H](CC(C)C)NC(=O)[C@@H](NC(=O)[C@H](CCCCNC(=O)OC(C)(C)C)NC(=O)[C@H](CCCCNC(=O)OC(C)(C)C)NC(=O)[C@H](CC(C)C)NC(=O)[C@H](CC(=O)NC(c1ccccc1)(c1ccccc1)c1ccccc1)NC(=O)[C@H](CC(=O)OC(C)(C)C)NC(=O)[C@H](CCCCNC(=O)OC(C)(C)C)NC(=O)[C@@H](NC(=O)[C@H](CCC(=O)OC(C)(C)C)NC(=O)[C@@H]1CCCN1C(=O)[C@H](COC(C)(C)C)NC(=O)[C@H](CC(C)C)NC(=O)[C@H](CCCCNC(=O)OC(C)(C)C)NC(=O)[C@@H](NC(=O)OCC1c2ccccc2-c2ccccc21)[C@@H](C)CC)[C@@H](C)OC(C)(C)C)C(C)C)[C@@H](C)CC)C(=O)NCC(=O)N[C@@H](C)C(=O)N[C@H](C(=O)N[C@@H](C)C(=O)N[C@H](C(=O)N[C@@H](C)C(=O)N[C@@](C)(CCCC=C)C(=O)N[C@@H](CCSC)C(=O)N[C@H](C(N)=O)C(C)C)C(C)C)[C@@H](C)CC`, the ring closure, overall yield [1] was 7.25%.

Compound `C=CCCC[C@](C)(NC(=O)CNC(=O)[C@H](CCCCNC(=O)OC(C)(C)C)NC(=O)[C@@H](NC(=O)[C@](C)(CCCC=C)NC(=O)CNC(=O)[C@H](CCCCNC(=O)OC(C)(C)C)NC(=O)[C@H](CC(C)C)NC(=O)[C@@H](NC(=O)[C@H](CCCCNC(=O)OC(C)(C)C)NC(=O)[C@H](CCCCNC(=O)OC(C)(C)C)NC(=O)[C@H](CC(C)C)NC(=O)[C@H](CC(=O)NC(c1ccccc1)(c1ccccc1)c1ccccc1)NC(=O)[C@H](CC(=O)OC(C)(C)C)NC(=O)[C@H](CCCCNC(=O)OC(C)(C)C)NC(=O)[C@@H](NC(=O)[C@H](CCC(=O)OC(C)(C)C)NC(=O)[C@@H]1CCCN1C(=O)[C@H](COC(C)(C)C)NC(=O)[C@H](CC(C)C)NC(=O)[C@H](CCCCNC(=O)OC(C)(C)C)NC(=O)[C@@H](NC(=O)OCC1c2ccccc2-c2ccccc21)[C@@H](C)CC)[C@@H](C)OC(C)(C)C)C(C)C)[C@@H](C)CC)C(=O)N[C@H](C(=O)N[C@@H](C)C(=O)N[C@H](C(=O)N[C@@H](C)C(=O)N[C@@H](CCCCNC(=O)OC(C)(C)C)C(=O)N[C@@H](CCSC)C(=O)N[C@H](C(N)=O)C(C)C)C(C)C)[C@@H](C)CC` has a ring closure, overall yield (21-membered ring, 1,2-dichloroethane, 4.0 h) of 19.9%.

`C=CCCCCCC[C@@](C)(NC(=O)[C@H](CC(=O)OC(C)(C)C)NC(=O)[C@H](CCCCNC(=O)OC(C)(C)C)NC(=O)[C@@H](NC(=O)[C@H](CCC(=O)OC(C)(C)C)NC(=O)[C@@H]1CCCN1C(=O)[C@H](COC(C)(C)C)NC(=O)[C@H](CC(C)C)NC(=O)[C@H](CCCCNC(=O)OC(C)(C)C)NC(=O)[C@@H](NC(=O)OCC1c2ccccc2-c2ccccc21)[C@@H](C)CC)[C@@H](C)OC(C)(C)C)C(=O)N[C@@H](CC(C)C)C(=O)N[C@@H](CCCCNC(=O)OC(C)(C)C)C(=O)N[C@@H](CCCCNC(=O)OC(C)(C)C)C(=O)N[C@H](C(=O)N[C@@H](CC(C)C)C(=O)N[C@@H](CCCCNC(=O)OC(C)(C)C)C(=O)N[C@@](C)(CCCC=C)C(=O)N[C@@H](C)C(=O)N[C@H](C(=O)N[C@@H](CCCCNC(=O)OC(C)(C)C)C(=O)NCC(=O)N[C@@H](C)C(=O)N[C@H](C(=O)N[C@@H](C)C(=O)N[C@H](C(=O)N[C@@H](C)C(=O)N[C@@H](CCCCNC(=O)OC(C)(C)C)C(=O)N[C@@H](CCSC)C(=O)N[C@H](C(N)=O)C(C)C)C(C)C)[C@@H](C)CC)[C@@H](C)CC)C(C)C` showed a ring closure, overall yield [1] of 6.51%.

In the case of “final: H-I-K-L-S-P-[S5]-T-K-D-[S5]-L-K-K-V-L-K-G-[S5]-I-K-G-[S5]-I-A-V-A-K-M-V-NH2; 1st RCM on Fmoc-[S5]-I-K-G-[S5]-I-A-V-A-K-M-V-resin, 2nd RCM on Fmoc-[S5]-T-K-D-[S5]-L-K-K-V-L-K-G-[S5]-I-K-G-[S5]-I-A-V-A-K-M-V-resin (C-terminal S5 pair already stapled)”, the ring closure, overall yield (21-membered ring, 1,2-dichloroethane) is reported as 5.43%.
